Values quoted from earlier work in patent US7595079B2, “Nutritional conjunctive support therapy for recovery in animals following stress or illness” (Bomac Vets Plus, Inc., priority 2005, dated 2009).

Experiments:
[1] = test system: jejunum villus; conditions: weaning of pigs; target value ≧339
[2] = test system: small intestinal crypt; conditions: E. coli induced diarrhea in calves; target value ≦100
[3] = test system: jejunum crypt; conditions: malnourished rats; target value ≦150

Compound: NC(=O)CC[C@H](N)C(=O)O [Glutamine]
- Jejunum Villus Height [1]: 358 um
- Mid plus Distal small intestinal Crypt width (mean % of baseline control) [2]: 92.2 mean % of baseline control
- Jejunum Crypt depth [3]: 134 um
